Experiments:
[1] = rat, in vivo, 4 h
Experimental: Vehicle and test compounds (Groups 1-7) were each administered orally (PO) to fasted rats. Each group included five animals. […] The animals were sacrificed four hours after dosing and gastric mucosal lesions were scored. A score of 50 percent or more (≧50%) relative to the aspirin-treated group (150 mg/kg PO, set as 100%) is considered positive in gastric irritation and is shown in parenthesis; and
Seven groups of rats, each group consisting of five animals, were each administered orally (PO) with test formulations and control compounds. […] Group 3 animals were treated with 150 mg/kg aspirin, and Group 4 animals were treated with 100 mg/kg of ibuprofen dissolved in 1% CMC vehicle.
The animals were sacrificed four hours after dosing with the test compound (or control vehicle) and gastric mucosal lesions were then scored according to the following criteria: 0=no lesions, 1=hyperemia, 2=one or two slight lesions, 3=more than two slight lesions or severe lesions, 4=very severe lesions (Herrerias et al., Dig. Dis. Sci., 2003). A score of 50 percent or more (≧50%) relative to the aspirin-treated group (150 mg/kg PO, set as 100%) was considered positive in gastric irritation and is shown in parenthesis in the table of FIG. 5.

[2] = test system: Influenza A/PR/8/34 (H1N1 virus); assay: In vivo mouse viral challenge (weight loss and survival of influenza-challenged mice); design: species or system mice (C57BLK/6); conditions: intraperitoneal, 335.6 μg/animal in 10 μl DMSO
Experimental: Five groups (n=10) of C57BLK/6 female mice (6-7 weeks old), were divided into five experimental groups containing ten animals each. On day 1, animals received an intranasal lethal dose (50 μl total, 25 μl nostril) of Influenza A/PR/8/34 under halothane induced anaesthesia.
The animals were weighed, and monitored for signs of infection daily up to day 6 when all animals were culled. FIGS. 1-4 represent the average weight loss per group and animal survival.
Using standard techniques as described above, mice were infected with a H1N1 virus which was allowed to become established in each of the subjects. Each test mouse was then treated with ibuprofen, either intraperitoneally (in DMSO) or orally (in the lipid/ethanol formulation, BC1054). The weight loss of both treated and untreated mice was then determined.

Row | Structure (SMILES) | ulceration score relative to aspirin (150 mg/kg PO, set as 100%) [1] | percentage survival rate compared with control mice ([2]; single dose day 3, especially after day four, FIG. 2) | higher reduction in weight loss than in the control mice ([2]; single dose day 3 post-challenge, vs vehicle control, FIG. 1)
1 | CC(=O)Oc1ccccc1C(=O)O [Aspirin] | 100% | – | –
2 | CC(C)Cc1ccc(C(C)C(=O)O)cc1 (stereo not drawn) [ibuprofen] | – | lower percentage survival rate than the control mice | ~30%
